Measurements reported in patent publication US8202865B2, “Oxadiazole derivatives” (Merck Serono SA, priority 2007, dated 2012).

What was measured:
S1P1 [1] = target: T1, S1P1 (Homo sapiens, UniProt P21453); assay: Receptor binding assay, [33P]sphingosine 1-phosphate, membranes, WGA SPA beads; conditions: membranes from CHO cells expressing S1P1; 25 pM [33P]S1P; 60 min RT
T1 construct: expressed in transfected cells; host or cells: CHO cells (membranes)
Method in brief: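 CHO-cell membranes expressing S1P1 incubated with 25 pM [33P]S1P in 50 mM HEPES pH 7.5, 5 mM MgCl2, 100 mM NaCl, 0.4% fatty acid-free BSA with WGA SPA beads for 60 min at RT. Bound radioactivity counted by scintillation proximity; specific binding defined using 1000-fold excess unlabeled S1P.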

S1P1 [2] = target: T1, S1P1; assay: 35S-GTPγS binding, S1P1 membranes; type: biochemical; conditions: membranes from CHO cells expressing S1P1; 60 min 30° C.
Method in brief: (§1)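 CHO-cell membranes expressing S1P1 or S1P3 (1-10 μg) incubated with compounds in 20 mM HEPES pH 7.4, 10 mM MgCl2, 140 mM NaCl, saponin, 0.2% BSA, 1.7 μM GDP and [35S]-GTPγS (20 μl of 1.5 nM added), 60 min at 30° C. Bound radioactivity expressed as % of S1P activation.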

S1P3 = target: T2, S1P3 (Homo sapiens, UniProt Q99500); assay: 35S-GTPγS binding, S1P3 membranes; type: biochemical; conditions: membranes from CHO cells expressing S1P3; 60 min 30° C.
T2 construct: expressed in transfected cells; host or cells: CHO cells (membranes)
Method in brief: as §1

T2 sequence (Q99500 whole entry, species assumed): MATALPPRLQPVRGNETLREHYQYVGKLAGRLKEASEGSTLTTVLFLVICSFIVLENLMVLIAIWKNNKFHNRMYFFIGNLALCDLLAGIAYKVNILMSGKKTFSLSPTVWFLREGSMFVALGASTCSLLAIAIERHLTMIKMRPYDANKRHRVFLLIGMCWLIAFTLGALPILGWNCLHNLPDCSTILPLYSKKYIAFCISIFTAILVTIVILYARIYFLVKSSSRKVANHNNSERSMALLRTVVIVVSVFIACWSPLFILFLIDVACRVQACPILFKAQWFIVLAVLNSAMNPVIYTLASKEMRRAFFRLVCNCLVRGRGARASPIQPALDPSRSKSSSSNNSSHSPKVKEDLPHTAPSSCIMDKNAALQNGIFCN
T1 sequence (P21453 whole entry, species assumed): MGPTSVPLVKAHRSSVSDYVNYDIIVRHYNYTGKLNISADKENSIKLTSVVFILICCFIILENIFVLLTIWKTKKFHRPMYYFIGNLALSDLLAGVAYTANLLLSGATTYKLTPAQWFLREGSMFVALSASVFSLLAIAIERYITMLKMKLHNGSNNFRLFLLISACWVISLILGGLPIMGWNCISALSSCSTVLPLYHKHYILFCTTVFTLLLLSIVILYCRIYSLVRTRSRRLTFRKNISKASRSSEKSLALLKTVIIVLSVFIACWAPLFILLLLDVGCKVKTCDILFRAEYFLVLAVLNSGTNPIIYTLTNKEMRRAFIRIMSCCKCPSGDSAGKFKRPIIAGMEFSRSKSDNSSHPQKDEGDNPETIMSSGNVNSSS

Structure (SMILES)	Ki (S1P1 [1]) [nM]	EC50 (S1P1 [2]) [nM]	EC50 (S1P3) [µM]
COCc1cc(-c2nc(-c3cc(F)c(C(=O)O)cc3F)no2)ccc1-c1ccccc1C [Example 97, 2,5-difluoro-4-{5-[2-(methoxymethyl)-2′-methylbiphenyl-4-yl]-1,2,4-oxadiazol-3-yl}benzoic acid]	8	64	1.94
COCc1cc(-c2nc(-c3ccc(C(=O)O)c(F)c3)no2)ccc1-c1cccc(C)c1C [Example 95, 2-fluoro-4-{5-[2-(methoxymethyl)-2′,3′-dimethylbiphenyl-4-yl]-1,2,4-oxadiazol-3-yl}benzoic acid]	16	48	4.96
COCc1cc(-c2nc(-c3cccc(C(=O)NCCNC(C)=O)c3)no2)ccc1-c1ccccc1C [Example 184, N-[2-(acetylamino)ethyl]-3-{5-[2-(methoxymethyl)-2′-methylbiphenyl-4-yl]-1,2,4-oxadiazol-3-yl}benzamide]	1	3.3	4.49
CC1CCCCN1c1ccc(-c2nc(-c3ccc(C(=O)O)c(F)c3)no2)cc1NS(=O)(=O)N(C)C (stereo not drawn) [Example 73, 4-{5-[3-{[(dimethylamino)sulfonyl]amino}-4-(2-methylpiperidin-1-yl)phenyl]-1,2,4-oxadiazol-3-yl}-2-fluorobenzoic acid]	213	122	2
